Here are results for 19 compounds from patent US20240425464A1, “Substituted Monohydrazides as Potent Antifungal Agents” (University of Kentucky Research Foundation, priority 2023, published 2024).

Holding throughout (experiment): MIC determination by in vitro antifungal assay
Test [1] deals with A. fumigatus NRRL 5109 (R). The test is classed as cell-based, Aspergillus fumigatus. The settings on record: strain R = A. fumigatus NRRL 5109. As for the experimental part:
(§1) 10 mg/mL stock solutions of compounds 1a-9j were prepared in dimethyl sulfoxide (DMSO) and were stored at −20° C. in the dark. The antifungal agent amphotericin B (AmB) was purchased from VWR (Radnor PA, USA). AmB was dissolved in DMSO at a final concentration of 5 mg/mL and was stored at −20° C., protected from light. Candida albicans American Type Culture Collection (ATCC) 10231 (strain A), C. albicans ATCC 64124 (B), and C. albicans ATCC MYA-2876 (C) were obtained from Utah State University. C. albicans ATCC 90819 (D), C. albicans ATCC MYA-2310 (E), C. albicans ATCC MYA-1237 (F), C. albicans ATCC MYA-1003 (G), Candida glabrata ATCC 2001 (H), Candida krusei ATCC 6258 (I), Candida parapsilosis ATCC 22019 (J), Cryptococcus neoformans ATCC MYA-895 (M), Aspergillus terreus ATCC MYA-3633 (N), and Aspergillus flavus ATCC MYA-3631 (0) were obtained from the American Type Culture Collection (ATCC; Manassas, VA, USA). Aspergillus nidulans ATCC 38163 (P) was obtained from University of Kentucky. Clinically derived Aspergillus fumigatus NRRL 163 (Q), A. fumigatus NRRL 5109 (R), and A. fumigatus NRRL 6113 (S) were obtained from Northern Regional Research Laboratory (NRRL). Candida auris 384 (K), C. auris 390 (L), and fungal strains 381-400 (including 10 C. auris (AR Bank #381-390), 3 Candida duobushaemulonii (AR Bank #391, AR Bank #392, and AR Bank #394), 2 Candida haemulonii (AR Bank #393 and AR Bank #395), 1 Kodameae ohmeri (AR Bank #396), 1 C. krusei (AR Bank #397), 1 Candida lusitaniae (AR Bank #398), and 2 Saccharomyces cerevisiae strains (AR Bank #399 and AR Bank #400)) were part of a larger fungal library from the AR Bank maintained by the Centers for Disease Control and Prevention (CDC; Atlanta, GA, USA). Filamentous fungi and yeasts were cultivated at 35° C. in RPMI 1640 medium (with L-glutamine, without sodium bicarbonate, Sigma-Aldrich, St. Louis, MO) buffered to a pH of 7.0 with 0.165 M morpholinepropanesulfonic acid (MOPS) buffer (Sigma-Aldrich). For cytotoxicity assays, HepG2 and the mouse macrophage cell line J774A.1 were obtained from University of Kentucky. The human embryonic kidney cell line, HEK-293, was bought from the ATCC. Mammalian cells were grown in Dulbecco's Modified Eagle's Medium (DMEM) (from VWR) with 10% fetal bovine serum (FBS) (from VWR) and 1% Pen/Strep (from ATCC). Cell lines were cultured at 37° C. with 5% CO2 and passaged by trypsinization with 0.05% trypsin: 0.53 mM EDTA (from Sigma-Aldrich).
(§2) The MIC values of compounds 1a-9j against yeast cells (strains A-P and 381-400) were determined in 96-well plates as described in the CLSI documents M27-A3 and M38-A2 with minor modifications.^2 A single colony of freshly prepared yeast cells was used to inoculate 5 mL of yeast extract peptone dextrose (YPD) broth prior to incubation overnight with shaking at 200 rpm at 35° C. From the actively growing yeast culture, 100 µL were then transferred to 900 μL of RPMI 1640 medium and re-adjusted to achieve OD600 of 0.12 (˜1×10^6 CFU/mL). The cell suspension was further diluted to achieve 1:100 in RPMI 1640 medium. 100 μL of cells were added to the wells of a 96-well microtiter plates that contained 100 µL of the compound solution to obtain concentrations of 0.06-31.3 μg/mL of compounds 1a-9j or AmB prior to incubation for 48 h at 35° C.
(§3) Finally, the activity of these monohydrazides was explored against […] non-Candida strains: Cryptococcus neoformans ATCC MYA-895 (M), Aspergillus terreus ATCC MYA-3633 (N), Aspergillus flavus ATCC MYA-3631 (O), Aspergillus nidulans ATCC 38163 (P), Aspergillus fumigatus NRRL 163 (Q), A. fumigatus NRRL 5109 (R), and A. fumigatus NRRL 6113 (S) (Tables 1A and 1B). The double dilution method was used with concentrations ranging from 0.06 to 31.3 j·tg mL^−1 for monohydrazides 1a-9j, and the commercially available positive antifungal control amphotericin B (AmB).

Test [2] relates to A. fumigatus NRRL 6113 (S). The test is classed as cell-based, Aspergillus fumigatus. The conditions noted are these: for MIC: strain S = A. fumigatus NRRL 6113. As for the experimental part:
as §1, §2, §3

Test [3] concerns Aspergillus fumigatus NRRL 163 (Q). The test is classed as cell-based. The conditions noted are these: strain Q = A. fumigatus NRRL 163. An outline of the steps: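 Twofold dilutions spanning 0.06–31.3 μg/mL were incubated with fungi for 48 h at 35° C in MOPS-buffered RPMI 1640 (pH 7.0), following modified CLSI M27-A3 and M38-A2 methods. Yeast cells were grown overnight in YPD, set to OD600 0.12 (~1×10^6 CFU/mL), then diluted 1:100.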

Where [4] appears, read: Aspergillus fumigatus, NRRL5109, read-out: MIC.
Setting [5] is: Aspergillus fumigatus, NRRL6113, read-out: MIC.
The mark [6] stands for this setting: Aspergillus fumigatus, NRRL163, read-out: MIC.

SMILES strings stand for the structures. In brackets after ≈: the same amount, converted by molar mass. Where two headings read alike, the source gives them in different places.

As for `C[C@@H]1[C@H](O)[C@@H](C)/C=C/C=C/C=C/C=C/C=C/C=C/C=C/[C@H](O[C@@H]2O[C@H](C)[C@@H](O)[C@H](N)[C@@H]2O)C[C@@H]2O[C@](O)(C[C@@H](O)C[C@@H](O)[C@H](O)CC[C@@H](O)C[C@@H](O)CC(=O)O[C@H]1C)C[C@H](O)[C@H]2C(=O)O` [AmB, amphotericin B, reference compound], the MIC in test [1] amounted to 0.98 μg/mL^−1; in test [2] it was 1.95 μg/mL^−1; in test [3], 0.98 μg/mL^−1.
For `O=C(NNc1cccc(F)c1)c1ccc(F)cc1F` [Compound 1a], the MIC in test [1], in test [2] and in test [3] was above 31.3 μg/mL^−1 throughout.
On to `O=C(NNc1ccc(F)cc1)c1ccc(F)cc1F` [Compound 1d], for which the MIC in test [1] (setting [4]), in test [2] (setting [5]) and in test [3] (setting [6]) was above 31.3 µg/mL each time.
On to `COc1ccc(NNC(=O)c2ccc(F)cc2F)cc1` [Compound 1f], for which the MIC in test [1] (setting [4]), in test [2] (setting [5]) and in test [3] (setting [6]) was above 31.3 µg/mL throughout.
In the case of `O=C(NNc1cccc(F)c1)c1ccccn1` [Compound 2a], the MIC in test [1], in test [2] and in test [3] was above 31.3 μg/mL^−1 in each case.
Take `O=C(NNc1cccc(Cl)c1)c1ccccn1` [Compound 2b]: the MIC in test [1], in test [2] and in test [3] was above 31.3 μg/mL^−1 each time.
On to `COc1cccc(NNC(=O)c2ccccn2)c1` [Compound 2c], for which the values for the MIC in test [1], in test [2] and in test [3] were 3.9 μg/mL^−1, above 31.3 μg/mL^−1 and 7.8 μg/mL^−1, respectively.
Regarding `O=C(NNc1ccc(F)cc1)c1ccccn1` [Compound 2d], the figures for the MIC in test [1] (setting [4]), in test [2] (setting [5]) and in test [3] (setting [6]) were 7.8 µg/mL (≈ 33.7 µM), 15.6 µg/mL (≈ 67.5 µM) and 31.3 µg/mL (≈ 135 µM), respectively. In test [2], the “MIC (highest activity against strain S)” value is on record as 15.6 j·tg mL^−1.
In the case of `O=C(NNc1ccc(Cl)cc1)c1ccccn1` [Compound 2e], the MIC is listed as 7.8 μg/mL^−1 in test [1], 15.6 μg/mL^−1 in test [2] and above 31.3 μg/mL^−1 in test [3]. Also, in test [2], the “MIC (highest activity against strain S)” value came out at 15.6 j·tg mL^−1.
As to `COc1ccc(NNC(=O)c2ccccn2)cc1` [Compound 2f], the MIC in test [1] (setting [4]) was above 31.3 µg/mL; in test [2] (setting [5]), 31.3 µg/mL (≈ 129 µM); in test [3] (setting [6]) it was above 31.3 µg/mL.
As to `O=C(NNc1ccc(F)cc1F)c1ccccn1` [Compound 2g], the MIC is 15.6 µg/mL (≈ 62.6 µM) in test [1] (setting [4]), 31.3 µg/mL (≈ 126 µM) in test [2] (setting [5]) and above 31.3 µg/mL in test [3] (setting [6]).
The corresponding values for `O=C(NNc1cc(F)ccc1F)c1ccccn1` [Compound 2h] are 15.6 µg/mL (≈ 62.6 µM), above 31.3 µg/mL and above 31.3 µg/mL.
The corresponding values for `O=C(NNc1cc(F)cc(F)c1)c1ccccn1` [Compound 2i] are at most 0.06 µg/mL, 31.3 µg/mL (≈ 126 µM) and at most 0.06 µg/mL.
The corresponding values for `O=C(NNc1cc(Cl)cc(Cl)c1)c1ccccn1` [Compound 2j] are above 31.3 µg/mL, above 31.3 µg/mL and above 31.3 µg/mL.
In the case of `O=C(NNc1cccc(F)c1)c1ccc(F)cn1` [Compound 3a], the MIC in test [1], in test [2] and in test [3] was above 31.3 μg/mL^−1 in each case.
Take `COc1cccc(NNC(=O)c2ccc(F)cn2)c1` [Compound 3c]: the MIC in test [1], in test [2] and in test [3] was above 31.3 μg/mL^−1 in each case.
`COc1ccc(NNC(=O)c2ccc(F)cn2)cc1` [Compound 3f]: the MIC in test [1], in test [2] and in test [3] was above 31.3 μg/mL^−1 each time.
As for `O=C(NNc1cccc(F)c1)c1ccc(Br)cn1` [Compound 4a], the MIC in test [1], in test [2] and in test [3] was above 31.3 μg/mL^−1 in each case.
For `O=C(NNc1ccc(Cl)cc1)c1cccc(F)n1` [Compound 5e], the “MIC (highest activity against strain S)” value in test [2] was determined as 15.6 j·tg mL^−1.
